The record followed here is US10632174B2, “B7-H1 fusion polypeptides for treating and preventing organ failure” (Fraunhofer-Gesellschaft zur Förderung der angewandten …, priority 2015, dated 2020).

Assay [1] deals with B7-H1 expression in Hepa1-6 cells. The assay is described as follows: B7-H1 mRNA (qPCR) and protein (Western) expression in Hepa1-6 cells. The class given is cell-based, murine. The conditions noted are these: 100 ng/ml LPS with 10 mM NAC, FIG. 7 vs FIG. 3B. Here is the method:
FIG. 3: B7-H1 expression in Hepa1-6 cells following LPS or LTA stimulation. Hepa1-6 cells were stimulated for the indicated times with 100 ng/ml LPS or 100 ng/ml LTA. Afterwards cells were harvested and mRNA was isolated or protein lysates were prepared as described in Materials and Methods. mRNA expression of B7-H1 (A) was analyzed by quantitative PCR. 18s rRNA was used as a house keeping gene. (B) B7-H1 protein expression following LPS stimulation was determined by Western analysis. All experiments were performed at least five times. Data represent the mean±SD (*p<0.5) or show a representative blot.
FIG. 7: B7-H1 expression was restored adding the GSH precursor N-acetyl-cysteine (NAC). Hepa1-6 cells were stimulated for the indicated times with 100 ng/ml LPS with 10 mM NAC. Afterwards cells were harvested and protein lysates were prepared as described in Materials and Methods. B7-H1 protein expression was determined by Western analysis. All experiments were performed at least five times. […]
LPS and LTA act via different Toll-like receptors (TLRs) on target cells i.e. TLR2 for LTA and TLR4 for LPS. […] To investigate whether a ROS-dependent mechanism was responsible for the reduction of B7-H1, ROS formation was determined in Hepa 1-6 cells treated with LPS alone or in combination with N-acetylcysteine (NAC). […]
B7-H1, B7-DC, PD-1, Fas and EGFP expression were analyzed by Western analysis. […]

In assay [2] the test system is B7-H1 surface expression in Hepa1-6 cells (Nox4 inhibition). The assay is described as follows: B7-H1 surface expression in Hepa1-6 cells by FACS. Type of assay: cell-based, murine. Conditions: 10 μM, 24 h, no further treatment, FIG. 8A. The method, then:
FIG. 8: Inhibition of Nox4 enhances B7-H1 expression. Hepa1-6 cells were treated with the Nox4-specific inhibitor GKT137831 [10 μM] for 24 h. Afterwards, cells were harvested and B7-H1 expression was determined by FACS analysis. A quantification of five independent experiments is provided in (A). In liver homogenates of global NOX4 knockout mice B7-H1 protein expression was examined by Western blotting (B). A representative blot is shown. A quantification of B7-H1 expression (WT vs. NOX4-KO; n=5/5; *p<0.5) is provided in (C). B7-H1 expression on hepatocytes following polymicrobial sepsis initiation by cecal ligation and puncture (CLP) was studied in liver single cell suspensions by FACS-analysis gating for CD45-, i.e. non-immune cells as described in Materials and Methods. A quantification is shown (D), (sham vs. CLP, WT sham is set as 1; n=5/5/5/5; *p<0.5). Liver damage in global NOX4 knockout mice following CLP operation is assessed by looking at ALT/AST release into the serum, which is determined with a Reflotron Plus […] analyzer (E) (NOX4-KO; sham vs. CLP; n=5/5, *p<0.5). […]
All antibodies and secondary reagents were titrated to optimal concentrations. […] Surface expression of B7-H1 and B7-DC on the surface of primary hepatocytes was determined by FACS analysis, using anti-B7-H-PE or anti-B7-DC-PE. […]

As to `CC(=O)N[C@@H](CS)C(=O)O` [NAC, N-acetylcysteine], the B7-H1 protein expression entry in assay [1] is on record as “restored expression of B7-H1”.

In the case of `CN(C)c1cccc(-c2c3c(=O)n(-c4ccccc4Cl)[nH]c3cc(=O)n2C)c1` [GKT137S31], the “increase of B7-H1 surface expression” value in assay [2] is “roughly 50%”.
